Holding throughout (assay type): in vivo
The subject of test [1] is Ersiphe polygoni. The test can be described thus: Powdery Mildew control (sprayed bean seedlings). The note with it: 250-ppm solution; bean seedlings (cultivar Bountiful); inoculated one day after spray; about 10 days; relative to untreated check plants. Here is the method:
The powdery mildew test was made using bean seedlings (cultivar Bountiful) with well-developed primary leaves. The pathogen was Ersiphe polygoni. The bean seedlings were sprayed with a 250-ppm solution of the test compound in an acetone-water mixture containing a non-ionic emulsifier. The treated plants were inoculated one day after spray application of the test compound with the pathogen. The plants were then maintained in a greenhouse at 60-80% relative humidity and at a temperature of 20°-22° C. The rate of infection on the leaves were checked after about 10 days. The percent disease control provided by a given test compound was based on the disease reduction relative to untreated check plants.

Test [2] has as its system Phytophthora infestans. The test can be described thus: whole plant or invertebrate. The note with it: in Solanum lycopersicum, 168 h, read-out: % Control.
The test system of test [3] is Alternaria solani. Description: Tomato Early Blight control (sprayed tomato seedlings). The note with it: 288 h, 250-ppm solution, tomato (cultivar Bonny Best) seedlings, inoculated one day later, about 12 days, relative to untreated check plants. Here is the method: Compounds of the invention were tested for the control of the Tomato Early Blight organism, Alternaria solani. Tomato (cultivar Bonny Best) seedlings of 6 to 7 weeks old were used. The tomato plants were sprayed with a 250-ppm solution of the test compound in an acetone-and-water solution containing a small amount of a non-ionic emulsifier. The sprayed plants were inoculated one day later with the organism, dried and maintained at 60-80% relative humidity for about 12 days. Percent disease control was based on the percent disease development on untreated check plants.

Test [4] has as its system Septoria apii. The note with it: celery (Utah) plants 11 weeks old; approximately 14 days; concentration not given; relative to untreated check plants.
The subject of test [5] is Plasmopara viticola. Description: Preventive Grape Downy Mildew control (detached grape leaves). The note with it: detached Vitis vinifera cultivar Emperor leaves, seven to nine days after inoculation. The procedure:
Compounds Nos. 1, 4, 13 and 19 were tested for the control of the grape downy mildew organism Plasmopara viticola. Detached leaves, between 70 and 85 mm in diameter, of 7-week-old Vitis vinifera cultivar Emperor grape seedlings were used as hosts. The leaves were sprayed with a solution of the test compound in acetone. The sprayed leaves were dried, inoculated with a spore suspension of the organism, placed in a humid environmental chamber and incubated at 18°-22° C. and about 100% relative humidity. Seven to nine days after inoculation, the amount of disease control was determined. The percent disease control provided by a given test compound was based on the percent disease reduction relative to untreated check plants.

Test [6] relates to Botrytis cinerea. The test can be described thus: Botrytis cinerea control (preventive, harvested grape berries). The note with it: 250-ppm solution; grape berries (cultivar Emperor); inoculated approximately one day later; 6-9 days after inoculation; relative to non-treated check. The procedure: Compounds Nos. 1, 8 and 11 were tested as preventive fungicides against Botrytis cinerea on harvested mature grape berries (cultivar Emperor) by the following procedure: 4 grape bunches (trimmed to approximately 50 berries) were sprayed with a 250-ppm solution of the test compound in a solution of water, acetone and a small amount of a non-ionic emulsifier. The sprayed grapes were inoculated approximately one day later with 2- to 3-week-old spores of Botrytis cinerea grown on potato dextrose agar plants. The rate of disease incidence was determined 6-9 days after inoculation, when disease symptoms are fully evident on non-treated check grapes. Infection is determined by actual count of the number of infected berries. The percent disease control provided by a test compound was calculated from the percentage disease reduction based on the non-treated check plants.

The source of these data is patent publication US4151279A (priority 1978, dated 1979).

As for `Cc1ccc(NC(=O)ON2C(C(Cl)(Cl)Cl)CC(=O)OC2(C)C)cc1` (stereo not shown) [Compound 33], the “% Control” value in test [1] is recorded as 96%. Also, the pest or weed control at 250 µg/mL in test [2] was determined as 21%. On to `CC1(C)OC(=O)C(Cl)(Cl)C(C(Cl)(Cl)Cl)N1OC(=O)Nc1ccc(Cl)cc1` (stereo not shown) [Compound 14], for which the pest or weed control at 250 µg/mL in test [3] was determined as 27%.

`CC(C)C1(C)OC(=O)CC(C(Cl)(Cl)Cl)N1OC(=O)Nc1ccc(Cl)c(Cl)c1` (stereo not shown) [Compound 28]: in test [2], the pest or weed control at 250 µg/mL is 23%. `CC1(C)OC(=O)C(Cl)(Cl)C(C(Cl)(Cl)Cl)N1OC(=O)Nc1cccc(Cl)c1` (stereo not shown) [Compound 10]: the pest or weed control at 250 µg/mL came out at 84% in test [3] and 68% in test [2]. On to `O=C(Nc1cccc(Cl)c1)ON1C(C(Cl)(Cl)Cl)C(Cl)(Cl)C(=O)OC12CCCC2` (stereo not shown) [Compound 12], for which the pest or weed control at 250 µg/mL is 33% in test [3] and 68% in test [2]. Take `CCC1(C)OC(=O)CC(C(Cl)(Cl)Cl)N1OC(=O)Nc1ccc(Cl)cc1` (stereo not shown) [Compound 31]: the values for the pest or weed control at 250 µg/mL in test [3] and in test [2] were 39% and 27%, respectively. Further, in test [4], the “% Control” value is recorded as 64%. In the case of `Cc1cccc(C)c1NC(=O)ON1C(C(Cl)(Cl)Cl)C(Cl)(Cl)C(=O)OC1(C)C` (stereo not shown) [Compound 21], the pest or weed control at 250 µg/mL in test [2] turned out to be 88%.

As for `CC1(C)OC(=O)CC(C(Cl)(Cl)Cl)N1OC(=O)Nc1ccccc1F` (stereo not shown) [Compound 2], the “% Control” value in test [1] is on record as 75%. In test [3], this compound had a pest or weed control at 250 µg/mL of 21%. With `CC1(c2ccccc2)OC(=O)C(Cl)(Cl)C(C(Cl)(Cl)Cl)N1OC(=O)Nc1cccc(Cl)c1` (stereo not shown) [Compound 13], in test [5] (100 ppm), the “% Control” value was 73%. In test [2], the pest or weed control at 250 µg/mL worked out at 89%.

As for `O=C(Nc1ccc(Cl)cc1)ON1C(C(Cl)(Cl)Cl)C(Cl)(Cl)C(=O)OC1(c1ccccc1)c1ccccc1` (stereo not shown) [Compound 16], the pest or weed control at 250 µg/mL in test [3] turned out to be 68%. Turning to `CC(C)C1(C)OC(=O)CC(C(Cl)(Cl)Cl)N1OC(=O)Nc1ccc(Cl)cc1` (stereo not shown) [Compound 32], the “% Control” value in test [1] amounted to 100%. The pest or weed control at 250 µg/mL in test [3] stood at 23%; in test [2] it was 56%. In the case of `CC1(C)OC(=O)CC(C(Cl)(Cl)Cl)N1OC(=O)Nc1ccc(Cl)cc1` (stereo not shown) [Compound 24], the “% Control” value in test [1] was determined as 75%. As to `CC1(C)OC(=O)C(Cl)(Cl)C(C(Cl)(Cl)Cl)N1OC(=O)Nc1ccc(Cl)c(Cl)c1` (stereo not shown) [Compound 7], the pest or weed control at 250 µg/mL in test [3] was found to be 18%; in test [2] it was 21%. As to `CC1(c2ccccc2)OC(=O)C(Cl)(Cl)C(C(Cl)(Cl)Cl)N1OC(=O)Nc1ccc(Cl)c(Cl)c1` (stereo not shown) [Compound 9], the pest or weed control at 250 µg/mL in test [2] came to 89%. For the compound `CC1(c2ccccc2)OC(=O)C(Cl)(Cl)C(C(Cl)(Cl)Cl)N1OC(=O)Nc1ccccc1` (stereo not shown) [Compound 8, N-(phenylcarbamyloxy)-2-methyl-2-phenyl-4-trichloromethyl-5,5-dichloro-6-oxotetrahydro-1,3-oxazine], the pest or weed control at 250 µg/mL in test [3] stood at 84%; in test [2], 97%. The “% Control” value in test [6] is 100%; in test [4], 61%. Take `CC1(C)OC(=O)CC(C(Cl)(Cl)Cl)N1OC(=O)Nc1ccc(Cl)c(Cl)c1` (stereo not shown) [Compound 4]: the “% Control” value in test [5] (100 ppm) was determined as 60%. In addition, the pest or weed control at 250 µg/mL in test [2] was determined as 96%.

Regarding `O=C(Nc1ccc(Cl)cc1)ON1C(C(Cl)(Cl)Cl)C(Cl)(Cl)C(=O)OC12CCCC2` (stereo not shown) [Compound 11], the figures for the pest or weed control at 250 µg/mL in test [3] and in test [2] were 84% and 94%, respectively. In addition, the results for the “% Control” value in test [6] and in test [4] were 78% and 42%, respectively.

Take `CC(C)C1(C)OC(=O)C(Cl)(Cl)C(C(Cl)(Cl)Cl)N1OC(=O)Nc1ccccc1` (stereo not shown) [Compound 27]: in test [2], the pest or weed control at 250 µg/mL came out at 92%. As for `O=C1CC(C(Cl)(Cl)Cl)N(OC(=O)Nc2ccc(Cl)c(Cl)c2)C2(CCCCC2)O1` (stereo not shown) [Compound 5], in test [2], the pest or weed control at 250 µg/mL is 56%. On the same count and under the same terms, under `COc1ccc(NC(=O)ON2C(C(Cl)(Cl)Cl)C(Cl)(Cl)C(=O)OC2(C)C)cc1` (stereo not shown) [Compound 18] stands 95%. Consider `CC1(C)OC(=O)CC(C(Cl)(Cl)Cl)N1OC(=O)Nc1ccccc1` (stereo not shown) [Compound 1], for which the “% Control” value in test [1] came out at 91%; in test [5] (250 ppm), 23%; in test [6], 23%. For the same compound, the pest or weed control at 250 µg/mL in test [3] worked out at 21%. `O=C(Nc1cccc(Cl)c1)ON1C(C(Cl)(Cl)Cl)C(Cl)(Cl)C(=O)OC1(c1ccccc1)c1ccccc1` (stereo not shown) [Compound 15]: the “% Control” value in test [1] amounted to 11%. In test [3], this compound came in with a pest or weed control at 250 µg/mL of 51%.
